Three compounds from patent US6787612B1, “Resin derivatization method and uses thereof” (Dendreon Corporation, priority 1998, dated 2004) can be followed below.

In experiment [1] the target is urokinase (Homo sapiens, UniProt P00749). Put plainly: urokinase inhibitory activity in in vitro assays. The settings on record: for urokinase inhibitory activity: in vitro assays. The experiment is classed as biochemical.
Experiment [2] has as its system thrombin. Particulars: in vitro assays.

Turning to `N=C(N)NCCCC(C=O)NC(=O)C1CCN1C(=O)C(CO)NS(=O)(=O)c1ccccc1.O=C(O)C(F)(F)F` [Example 14, benzenesulfonyl-D-seryl-azetidyl-argininal, trifluoroacetate salt], in experiment [1], the “specific inhibitory activity toward urokinase” value was “demonstrates specific inhibitory activity toward urokinase” and the urokinase inhibitory activity entry was “shown to have urokinase inhibitory activity”.

As to `N=C(N)NCCCC(C=O)NC(=O)CN1CCCC(NS(=O)(=O)Cc2ccccc2)C1=O` (stereo not shown) [Example 8, Benzylsulfonamido-6Lactam-Gly-Argininal], the thrombin inhibitory activity result in experiment [2] is recorded as “shown to have thrombin inhibitory activity”.

Regarding `C[C@H](NC(=O)[C@@H](CO)NCCCc1ccccc1)C(=O)N[C@H](C=O)CCCNC(=N)N.O=C(O)C(F)(F)F` [Example 26, N-alpha-(3-phenylpropyl)-D-seryl-alanyl-argininal, trifluoroacetate salt], in experiment [1], the urokinase inhibitory activity result was “shown to have urokinase inhibitory activity”.
